Measurements published in patent US20130165368A1, “ANTIMICROBIAL COMPOUNDS” (priority 2010, published 2013).
≈ marks a conversion by molar mass, not a printed value. Where two headings read alike, the source gives them in different places.

How the values were obtained:
Assay type in all cases: cell-based
Enterococcus faecium = test: MIC agar dilution, micro-organism 16 (7171); conditions: Enterococcus faecium 7171, read-out: MIC
Protocol: (§1) Throughout the period of testing the microbial strains were subcultured and incubated for 18-20 hours at 37° C. on a weekly basis. Horse blood agar plates were used to sustain the micro-organisms both prior to and throughout testing. The alkoxylated alkanols listed in Table II below were obtained (these are obtainable from Sigma-Aldrich Company Ltd, Dorset, England), each having a GC purity of at least 97%.
(§2) Molar equivalent concentrations were used to allow comparison between compounds of differing molecular mass. Due to weighing difficulties, any compound in solid form was melted in a water bath prior to dilution. To make ten-times strength concentrations, which takes into account agar dilution, 0.0352 mmol of each compound was weighed into plastic universal bottles and 4 mL of sterile distilled water (SDW) was added. To produce a homogenous emulsion the universals were vortexed; once achieved the emulsions were serial diluted by adding 2 mL to 2 mL of SDW.
(§3) Myristyl alcohol and lauryl alcohol were re-weighed and dissolved in 25 μL of the polar solvent 1-methyl-2-pyrrolidone (M6762; Sigma-Aldrich) in sterile glass universals due to an inability to achieve an even suspension. To maintain an even emulsion in the presence of SDW 37.5 μL of the non-ionic detergent Tween 20 (P1379, Sigma-Aldrich) was also added. 3.9375 mL of SDW was added to these, to create a 4 mL volume; they were vortexed and diluted as before.
(§4) For every 100 mL of Isosensitest agar (IST) (CM0471; Oxoid, Basingstoke, England), 3.1 g of the IST powder was added to 100 mL SDW (as per manufacturer's instructions) and sterilised for 15 minutes at 121° C. Once sterilised, the molten agar was cooled to 50° C. in a water-bath. Subsequently 4.8 g of CCEY powder (BC2160; Bioconnections, Wetherby, England), also known as Brazier's medium, was added to 100 mL SDW for every 100 mL of agar needed. This was then sterilised for 15 minutes at 121° C. Once sterilised the molten agar was cooled to 50° C. in a water-bath and 4 mL of egg-yolk emulsion (S2073; TCS Biosciences Ltd, Buckingham, United Kingdom) and 1 mL of lysed defibrinated horse blood (HB035; TCS Biosciences Ltd, Buckingham, United Kingdom) were also added for every 100 mL needed. Horse blood lysis is achieved by dilution to half concentration with SDW; when fully lysed the mixture will turn dark red in colour.
(§5) 18 mL agar was added to each universal and then poured into sterile Petri dishes. This step creates a 1/10 dilution resulting in agar plates of the required strength. Control plates for each set of strains were created by adding 18 mL of agar to 2 mL of SDW.
(§6) Suspensions of each bacterial species were prepared with a density equal to that of a 0.5 McFarland standard using a densitometer. All suspensions were made using sterile distilled water and fresh 18-20 hour cultures. As a 0.5 McFarland standard contains 1.5×10^8 CFU/mL and the multipoint inoculators applies 1 μL spots of liquid, each bacterial suspension was diluted 1/15 (20 μL suspension to 280 μL sterile distilled water).
(§7) Bacterial suspensions were prepared from fresh 18-24 hour cultures as previously described. 1 μL of each strain was inoculated onto all 100 agar plates containing a different chemical concentration and the 2 control plates. This was done using a multipoint inoculator which inoculates 20 strains per plate. All plates were incubated for 22 hours at 37° C. in aerobic conditions.
(§8) Each plate was examined for bacterial growth after 22 and 48 hours, with each being incubated in between examinations. A positive result was recorded as growth of ≧10 colonies. A negative result was recorded as growth of <10 colonies as this is equivalent to 99.9% inhibition. The lowest concentration of chemical that inhibited growth was recorded as the MIC. The results are recorded in Table IV below, where the numbers are quoted in mmol/L. […]

Listeria monocytogenes = test: MIC agar dilution, micro-organism 15 (11994); conditions: Listeria monocytogenes 11994, read-out: MIC
Protocol: as §1, §2, §3, §4, §5, §6, §7, §8

Candida glabrata = test: MIC agar dilution, micro-organism 20 (3943); conditions: Nakaseomyces glabratus, Candida glabrata 3943, read-out: MIC
Protocol: as §1, §2, §3, §4, §5, §6, §7, §8

[1] = tested on: Staphylococcus aureus (MRSA); test: MIC agar dilution, micro-organism 12 (11939); conditions: Staphylococcus aureus, MRSA, Staphylococcus aureus (MRSA) 11939, read-out: MIC
Protocol: as §1, §2, §3, §4, §5, §6, §7, §8

Candida albicans = test: MIC agar dilution, micro-organism 19 (90028); conditions: Candida albicans 90028, read-out: MIC
Protocol: as §1, §2, §3, §4, §5, §6, §7, §8

Enterococcus faecalis = test: MIC agar dilution, micro-organism 17 (775); conditions: Enterococcus faecalis 775, read-out: MIC
Protocol: as §1, §2, §3, §4, §5, §6, §7, §8

Providencia rettgeri = test: MIC agar dilution, micro-organism 3 (7475); conditions: Providencia rettgeri 7475, read-out: MIC
Protocol: as §1, §2, §3, §4, §5, §6, §7, §8

Staphylococcus aureus = test: MIC agar dilution, micro-organism 13 (6571); conditions: Staphylococcus aureus, Staphylococcus aureus 6571, read-out: MIC
Protocol: as §1, §2, §3, §4, §5, §6, §7, §8

Steptococcus pyogenes = test: MIC agar dilution, micro-organism 11 (8306); conditions: Steptococcus pyogenes 8306, read-out: MIC
Protocol: as §1, §2, §3, §4, §5, §6, §7, §8

Escherichia coli = test: MIC agar dilution, micro-organism 1 (10418); conditions: Escherichia coli 10418, read-out: MIC
Protocol: as §1, §2, §3, §4, §5, §6, §7, §8

[2] = tested on: Staphylococcus epidermidis; test: MIC agar dilution, micro-organism 14 (11047); conditions: Staphylococcus epidermidis 11047, read-out: MIC
Protocol: as §1, §2, §3, §4, §5, §6, §7, §8

Bacillus subtilis = test: MIC agar dilution, micro-organism 18 (9372); conditions: Bacillus subtilis 9372, read-out: MIC
Protocol: as §1, §2, §3, §4, §5, §6, §7, §8

MIC (Enterococcus faecium; 22 hrs) [µM] | MIC (Enterococcus faecium; 48 hrs) [µM] | MIC (Listeria monocytogenes; 22 hrs) [µM] | MIC (Listeria monocytogenes; 48 hrs) [µM] | MIC (Candida glabrata; 22 h, 22 hrs) [µM] | MIC (Candida glabrata; 48 h, 48 hrs) [µM] | MIC ([1]; 22 h, 22 hrs) [µM] | MIC ([1]; 48 h, 48 hrs) [µM] | MIC (Candida albicans; 22 hrs) [µM] | MIC (Candida albicans; 48 hrs) [µM] | MIC (Enterococcus faecalis; 22 hrs) [µM] | MIC (Enterococcus faecalis; 48 hrs) [µM] | MIC (Providencia rettgeri; 22 hrs) [µM] | MIC (Providencia rettgeri; 48 hrs) [µM] | MIC (Staphylococcus aureus; 22 h, 22 hrs) [µM] | MIC (Staphylococcus aureus; 48 h, 48 hrs) [µM] | MIC (Steptococcus pyogenes; 22 h, 22 hrs) [µM] | MIC (Steptococcus pyogenes; 48 h, 48 hrs) [µM] | MIC (Escherichia coli; 22 hrs) [µM] | MIC (Escherichia coli; 48 hrs) [µM] | SMILES | also measured
> 880 | 220 (≈ 47.2 µg/mL) | > 880 | > 880 | > 880 | > 880 | 110 (≈ 23.6 µg/mL) | 110 (≈ 23.6 µg/mL) | > 880 | > 880 | > 880 | 110 (≈ 23.6 µg/mL) | > 880 | > 880 | 440 (≈ 94.3 µg/mL) | 440 (≈ 94.3 µg/mL) | 220 (≈ 47.2 µg/mL) | 220 (≈ 47.2 µg/mL) | > 880 | > 880 | CCCCCCCCCCCCCCO [M0, 1-Tetradecanol, reference compound] | MIC ([2]; 22 hrs): 110 µM (≈ 23.6 µg/mL); MIC ([2]; 48 hrs): 220 µM (≈ 47.2 µg/mL); MIC (Bacillus subtilis; 22 hrs): > 880 µM; MIC (Bacillus subtilis; 48 hrs): > 880 µM
> 880 | > 880 | > 880 | > 880 | > 880 | > 880 | 440 (≈ 249 µg/mL) | 440 (≈ 249 µg/mL) | > 880 | > 880 | 55 (≈ 31.2 µg/mL) | 55 (≈ 31.2 µg/mL) | > 880 | > 880 | 110 (≈ 62.3 µg/mL) | 110 (≈ 62.3 µg/mL) | 550 (≈ 312 µg/mL) | 55 (≈ 31.2 µg/mL) | > 880 | > 880 | CCCCCCCCCCCCCCOCCOCCOCCOCCOCCOCCOCCOCCO [M8, Octaethylene Glycol Monotetradecyl Ether] | MIC ([2]; 22 hrs): 220 µM (≈ 125 µg/mL); MIC ([2]; 48 hrs): 220 µM (≈ 125 µg/mL); MIC (Bacillus subtilis; 22 hrs): 110 µM (≈ 62.3 µg/mL); MIC (Bacillus subtilis; 48 hrs): 110 µM (≈ 62.3 µg/mL)
> 880 | > 880 | > 880 | > 880 | 880 (≈ 238 µg/mL) | 880 (≈ 238 µg/mL) | > 880 | > 880 | > 880 | > 880 | > 880 | > 880 | > 880 | > 880 | > 880 | > 880 | 880 (≈ 238 µg/mL) | 880 (≈ 238 µg/mL) | > 880 | > 880 | CCCCCCCCCCCCCCCCCCO [S0, 1-Octadecanol, reference compound] | MIC ([2]; 22 hrs): > 880 µM; MIC ([2]; 48 hrs): > 880 µM; MIC (Bacillus subtilis; 22 hrs): > 880 µM; MIC (Bacillus subtilis; 48 hrs): > 880 µM
